Measurements: ChEMBL document CHEMBL5506057, “Discovery and Optimization of Potent, Efficacious and Selective Inhibitors Targeting EGFR Exon20 Insertion Mutations” (J Med Chem, 2024)
Activity calls are given as the source filed them. The calls are words filed in the database; no cut-off is given here.

Legend:
[1] = biological target: T1, Epidermal growth factor receptor (Homo sapiens, UniProt P00533); assay: Inhibition of wildtype EGFR (unknown origin) phosphorylation transfected in human NCI-H2073 cells preincubated for 2 hrs followed by EGF stimulation for 10 mins by HTRF assay; type: cell-based
[2] = Metabolic stability in human liver microsomes assessed as intrinsic clearance at 1 uM incubated for 30 mins in presence of NADPH by LC-MS/MS analysis; type: ADME, Microsome; conditions: read-out: CLH
[3] = (§1) Selectivity ratio of IC50 for inhibition of wildtype EGFR (unknown origin) transfected in human NCI-H2073 cells preincubated for 2 hrs followed by EGF stimulation for 10 mins by HTRF assay to IC50 for inhibition of EGFR D770_N771insSVD mutant (unknown origin) transfected in human NCI-H2073 cells incubated for 2 hrs by HTRF assay; type: cell-based
[4] = biological target: T2, Epidermal growth factor receptor (Homo sapiens, UniProt P00533, D770-N771INSSVD); assay: Inhibition of EGFR D770_N771insSVD mutant (unknown origin) phosphorylation transfected in human NCI-H2073 cells incubated for 2 hrs by HTRF assay; type: cell-based
[5] = Lipophilicity, logD of compound in octanol and aqueous buffer at pH 7.4 incubated for 2 hrs by shake-flask method based LC-MS/MS analysis; type: physicochemical
[6] = Duration (time) of SCID mouse free plasma concentration cover over EGFR insSVD cell IC50 at 50 mg/kg, po; type: ADME, organism-based; conditions: in vivo
[7] = test system: MDR1; assay: Efflux ratio of apparent permeability across basolateral to apical side over apical to basolateral side in MDCKII-MDR1 cells at 1 uM incubated for 2 hrs by LC-MS/MS analysis; type: ADME, cell-based, Canis lupus familiaris; conditions: dog, MDCK-MDR1
[8] = Metabolic stability in CD-1 mouse hepatocytes assessed as intrinsic clearance measured per 10^6 cells at 1 uM incubated for 120 mins by LC-MS/MS analysis; type: ADME, cell-based, Hepatocyte; conditions: read-out: CLH
[9] = Metabolic stability in rat hepatocytes assessed as intrinsic clearance measured per 10^6 cells at 1 uM incubated for 120 mins by LC-MS/MS analysis; type: ADME, cell-based, Hepatocyte; conditions: read-out: CLH
[10] = Drug metabolism in human liver microsomes assessed as O-dealkylation mediated fluoro-phenolic metabolite formation incubated for 60 mins by LC-MS/MS analysis; type: ADME, Microsome; conditions: 1 h
[11] = Intrinsic permeability in human Caco-2 cells at 10 uM; type: ADME, cell-based; conditions: read-out: permeability
[12] = GSH reactivity of compound in phosphate buffer assessed as half-life at pH 7.4 at 1 uM by LC-MS/MS analysis; type: physicochemical; conditions: phosphate buffer with GSH
[13] = as §1, with “ELISA” for “HTRF assay”; type: cell-based
[14] = biological target: Epidermal growth factor receptor (Homo sapiens, UniProt P00533, D770-N771INSNPG); assay: Inhibition of 6His-tagged TEV-GS fused EGFR D770_N771insNPG mutant (G696 to G1210 reisudes) (unknown origin) expressed in Sf21 cells using Poly(Glu,Tyr) peptide as substrate preincubated for 15 mins followed by substrate addition and measured after 30 mins in presence of ATP by ADP-Glo reagent based assay
[15] = Toxicity in female SCID mouse xenografted with human NCI-H2073 cells harboring EGFR D770_N771insSVD mutant assessed as body weight loss at 100 mg/kg, po administered once daily for 14 days; type: organism-based; conditions: in vivo, 336 h, time 14 day
[16] = test system: Mus musculus; assay: In vivo inhibition of EGFR phosphorylation in female SCID mouse xenografted with NCI-H2073 cells harboring EGFR D770_N771insSVD mutant at 100 mg/kg, po measured after 1 to 6 hrs by immunoblotting analysis; type: functional, organism-based; conditions: time 1-6 hrs
[17] = biological target: T2, Epidermal growth factor receptor; assay: Inhibition of EGFR D770_N771insSVD mutant (unknown origin) phosphorylation transfected in human NCI-H2073 cells incubated for 2 hrs by ELISA; type: cell-based
[18] = Antitumor activity against human NCI-H2073 cells harboring wildtype EGFR xenografted in female SCID mouse assessed as tumor growth inhibition at 100 mg/kg, po administered once daily for 15 days relative to control; type: functional; conditions: NCI-H2073, 360 h, time 15 day, read-out: TGI
[19] = biological target: T1, Epidermal growth factor receptor; assay: Inhibition of wildtype EGFR (unknown origin) phosphorylation transfected in human NCI-H2073 cells preincubated for 2 hrs followed by EGF stimulation for 10 mins by ELISA; type: cell-based
[20] = biological target: T1, Epidermal growth factor receptor; assay: Inhibition of recombinant wildtype human N-terminal GST-tagged EGFR cytoplasmic domain (669 to 1210 residues) expressed in Sf21 insect cells using Poly(Glu,Tyr) peptide as substrate preincubated for 15 mins followed by substrate addition and measured after 50 mins in presence of ATP by ADP-Glo reagent based assay
[21] = Antitumor activity against human NCI-H2073 cells harboring EGFR D770_N771insSVD mutant xenografted in female SCID mouse assessed as tumor growth inhibition at 100 mg/kg, po administered once daily for 14 days relative to control; type: functional; conditions: NCI-H2073, 336 h, time 14 day, read-out: TGI
[22] = Selectivity ratio of Ki/Kinact for inhibition of EGFR D770_N771insNPG mutant (unknown origin) using AQT0099 as substrate to Ki/Kinact for inhibition of wildtype EGFR (unknown origin) using AQT0099 as substrate
[23] = Selectivity ratio of IC50 for inhibition of recombinant wildtype human N-terminal GST-tagged EGFR cytoplasmic domain (669 to 1210 residues) expressed in Sf21 insect cells to IC50 for inhibition of 6His-tagged TEV-GS fused EGFR D770_N771insNPG mutant (G696 to G1210 reisudes) (unknown origin) expressed in Sf21 cells

T2 sequence (P00533 whole entry, looked up, stated change not applied): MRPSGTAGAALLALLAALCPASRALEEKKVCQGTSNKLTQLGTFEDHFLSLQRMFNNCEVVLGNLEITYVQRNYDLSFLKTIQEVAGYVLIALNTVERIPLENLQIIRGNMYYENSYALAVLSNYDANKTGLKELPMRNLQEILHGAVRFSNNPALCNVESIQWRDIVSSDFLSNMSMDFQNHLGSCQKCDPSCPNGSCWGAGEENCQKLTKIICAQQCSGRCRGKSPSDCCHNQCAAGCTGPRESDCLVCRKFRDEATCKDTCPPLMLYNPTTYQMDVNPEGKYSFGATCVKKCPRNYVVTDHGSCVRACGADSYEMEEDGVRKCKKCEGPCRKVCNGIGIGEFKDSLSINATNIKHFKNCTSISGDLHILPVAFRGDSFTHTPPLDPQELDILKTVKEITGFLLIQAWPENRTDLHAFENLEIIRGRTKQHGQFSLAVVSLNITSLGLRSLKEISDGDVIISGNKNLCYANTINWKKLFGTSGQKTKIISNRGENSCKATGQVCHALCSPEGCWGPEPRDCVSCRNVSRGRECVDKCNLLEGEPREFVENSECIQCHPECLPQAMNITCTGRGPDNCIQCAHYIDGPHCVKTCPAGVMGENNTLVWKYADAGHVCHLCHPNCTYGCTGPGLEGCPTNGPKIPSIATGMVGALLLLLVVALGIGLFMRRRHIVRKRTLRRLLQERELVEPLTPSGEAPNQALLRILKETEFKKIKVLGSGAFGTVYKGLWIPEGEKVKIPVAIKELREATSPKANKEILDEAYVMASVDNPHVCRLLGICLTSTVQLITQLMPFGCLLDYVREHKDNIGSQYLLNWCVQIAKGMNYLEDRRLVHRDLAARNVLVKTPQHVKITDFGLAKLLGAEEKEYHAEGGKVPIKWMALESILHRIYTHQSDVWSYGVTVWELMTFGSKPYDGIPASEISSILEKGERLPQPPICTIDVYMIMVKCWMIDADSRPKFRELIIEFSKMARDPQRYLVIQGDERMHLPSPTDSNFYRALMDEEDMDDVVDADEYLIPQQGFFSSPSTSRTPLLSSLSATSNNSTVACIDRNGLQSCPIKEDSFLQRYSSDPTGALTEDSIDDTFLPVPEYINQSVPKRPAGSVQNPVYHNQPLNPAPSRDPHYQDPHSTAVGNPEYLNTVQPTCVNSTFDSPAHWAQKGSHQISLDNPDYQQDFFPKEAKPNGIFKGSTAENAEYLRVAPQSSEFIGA
Chain of Epidermal growth factor receptor (Homo sapiens, UniProt P00533, D770-N771INSNPG) (P00533 whole entry, looked up, stated change not applied, the tested form may be a part): as the sequence (P00533 whole entry, looked up, stated change not applied) above
T1 sequence (P00533 whole entry): as the sequence (P00533 whole entry, looked up, stated change not applied) above

Row | SMILES | microsomal CLint at 1 µM [2] [µL/min/mg] | logD at 2 h [5] | hepatocyte CLint at 1 µM [9] [µL/min/1e6 cells] | other results
1 | C=CC(=O)N1CC[C@H](n2cc(-c3ccncc3)c(-c3cc(F)cc(OCc4ccc5c(c4)CN(C)C5=O)c3)n2)C1 | > 300 | 3.3 |  | IC50 [1]: > 28000 nM; Ratio IC50 [3]: > 52; IC50 [4]: 540 nM
2 | C=CC(=O)N1CC[C@H](n2cc(-c3ccncc3)c(-c3cccc(/C=C/c4ccc5c(c4)CN(C)C5=O)c3)n2)C1 | 200 | 3.9 | 28 | IC50 [1]: > 16000 nM; Time [6]: 0 h; efflux ratio at 2 h, 1 µM [7]: 29; hepatocyte CLint at 1 µM [8]: 29 µL/min/1e6 cells; Ratio IC50 [3]: > 73; IC50 [4]: 220 nM
3 | C=CC(=O)N1C[C@@H](n2cc(-c3ccncc3)c(-c3cc(COc4ccc5c(c4)CN(C)C5=O)ccc3F)n2)C[C@H]1C | > 300 | 3.3 | 55 | 
4 | C=CC(=O)N1C[C@@H](n2cc(-c3ccncc3)c(-c3cccc(COc4ccc5c(c4)CN(C)C5=O)c3)n2)C[C@H]1C | > 300 | 3.4 | 58 | Time [6]: 3 h; hepatocyte CLint at 1 µM [8]: 30 µL/min/1e6 cells
5 | C=CC(=O)N1C[C@@H](n2cc(-c3ccncc3)c(-c3ccc(F)c(COc4ccc5c(c4)CN(C)C5=O)c3)n2)C[C@H]1C | > 300 | 3.6 | 173 | 
6 | C=CC(=O)N1CC(Oc2cc3c(-c4c[nH]nc4-c4cccc(OC)c4)ncnc3cc2OC)C1 | 33 | 2 |  | 
7 | C=CC(=O)N1CC[C@H](n2cc(-c3ccncc3)c(-c3cccc(OCc4ccc5c(c4)CN(C)C5=O)c3)n2)C1 | > 264 | 2.6 |  | hepatocyte CLint at 1 µM [8]: 64 µL/min/1e6 cells
8 | C=CC(=O)N1CC[C@H](n2cc(-c3ccncc3)c(-c3cccc(/C=C/c4cc5n(n4)CCOC5)c3)n2)C1 | 167 | 3.5 | 62 | 
9 | C=CC(=O)N1CC[C@H](n2cc(-c3ncnc4cc(OC)c(OC)cc34)c(-c3cccc(OC)c3)n2)C1 | 157 | 2.4 |  | 
10 | COc1cc2ncnc(-c3c[nH]nc3-c3cccc(OCc4ccc5c(c4)CN(C)C5=O)c3)c2cc1OC | > 300 |  |  | 
11 | C=CC(=O)N1CC[C@H](n2cc(-c3ccncc3)c(-c3ccc(F)c(OCc4ccc5c(c4)CN(C)C5=O)c3)n2)C1 | > 300 | 2.9 |  | Drug metabolism [10]: Metabolite_Detected
12 | C=CC(=O)N1CC(n2cc(-c3ccncc3)c(-c3cccc(/C=C/c4ncc(C5CC5)o4)c3)n2)C1 | 51 | 4.4 | 48 | hepatocyte CLint at 1 µM [8]: 64 µL/min/1e6 cells
13 | C=CC(=O)N1CC(n2cc(-c3ccncc3)c(-c3cccc(NC(=O)c4cn(C5CC5)cn4)c3)n2)C1 | 19 | 2.2 | 58 | hepatocyte CLint at 1 µM [8]: 150 µL/min/1e6 cells
14 | Fc1ccccc1COc1cccc(-c2n[nH]cc2-c2ccncn2)c1 | 117 | 3.5 |  | 
15 | C=CC(=O)N1CC[C@H](n2cc(-c3ccncn3)c(-c3cccc(/C=C/c4ncc(C5CC5)o4)c3)n2)C1 | 202 | 3.7 | 67 | 
16 | C=CC(=O)N1CC[C@H](n2cc(-c3ccncc3)c(-c3cccc(NC(=O)c4cn(C5CC5)cn4)c3)n2)C1 | 64 | 2.5 | 38 | Time [6]: 1 h; hepatocyte CLint at 1 µM [8]: 42 µL/min/1e6 cells
17 | Fc1ccccc1COc1cccc(-c2n[nH]cc2-c2ccncc2)c1 | 226 | > 4.9 |  | 

Row | SMILES | microsomal CLint at 1 µM [2] [µL/min/mg] | logD at 2 h [5] | hepatocyte CLint at 1 µM [9] [µL/min/1e6 cells] | other results
18 | C=CC(=O)Nc1ccc(OC)c(Nc2nccc(-c3c[nH]nc3-c3cccc(OC)c3)n2)c1 | 46 | 4.1 |  | Papp at 10 µM [11]: 64 ×10⁻⁶ cm/s; half-life at 1 µM [12]: 5.35 h
19 | C#CC(=O)NCCn1cc(-c2ncnc3cc(OC)c(OC)cc23)c(-c2cccc(OC)c2)n1 | 105 | 2.1 |  | half-life at 1 µM [12]: 0.917 h
20 | C=CC(=O)N1CC[C@H](n2cc(-c3ccncc3)c(-c3cc(OCc4ccc5c(c4)CN(C)C5=O)ccc3F)n2)C1 | > 300 | 2.7 |  | 
21 | C=CC(=O)N1CC[C@H](n2cc(-c3ccncc3)c(-c3cccc(NC(=O)c4ccc5c(c4)CN(C)C5=O)c3)n2)C1 | 58 | 2.2 | 21 | Papp at 10 µM [11]: < 0.36 ×10⁻⁶ cm/s
22 | C=CC(=O)N[C@H]1C=C(C)c2c(-c3cnc4ccccc4c3)c3c(N)ncnc3n2C1 [CLN-081] |  |  |  | IC50 [1]: 77 nM; Ratio IC50 [13]: 3.4; IC50 [14]: < 3 nM; Activity [15]: < 10%; inhibition [16]: Active; IC50 [17]: 57 nM; inhibition in vivo at 100 mg/kg [18]: 63%; IC50 [19]: 190 nM; IC50 [20]: < 3 nM; inhibition in vivo at 100 mg/kg [21]: 69%; Selectivity ratio [22]: 0.79; Ratio IC50 [3]: 3.6; IC50 [4]: 21 nM
23 | C=CC(=O)NCCn1cc(-c2ncnc3cc(OC)c(OC)cc23)c(-c2cccc(OC)c2)n1 | 116 | 2.4 |  | half-life at 1 µM [12]: 49.3 h
24 | C=CC(=O)N1CC[C@H](n2cc(-c3ccncc3)c(-c3cccc(NC(=O)c4ncc(C5CC5)o4)c3)n2)C1 | 166 | 3.1 | 187 | Papp at 10 µM [11]: 30 ×10⁻⁶ cm/s
25 | C=CC(=O)N1CC[C@H](n2cc(-c3ccncc3)c(-c3cccc(NC(=O)c4cccc(OC)c4F)c3)n2)C1 | 175 | 2.9 | 51 | Papp at 10 µM [11]: 42 ×10⁻⁶ cm/s
26 | C=CC(=O)N1C[C@@H](n2cc(-c3ccncc3)c(-c3cccc(OCc4ccc5c(c4)CN(C)C5=O)c3)n2)C[C@H]1C | > 300 | 3.2 |  | 
27 | C=CC(=O)Nc1cc(Nc2ncc(C(=O)OC(C)C)c(-c3cn(C)c4ccccc34)n2)c(OC)cc1N(C)CCN(C)C [MOBOCERTINIB] |  |  |  | IC50 [1]: 37 nM; Ratio IC50 [13]: 1.4; IC50 [14]: < 3 nM; Ratio IC50 [23]: > 0.4; IC50 [17]: 22 nM; IC50 [19]: 30 nM; IC50 [20]: 1 nM; Selectivity ratio [22]: 0.63; Ratio IC50 [3]: 1.1; IC50 [4]: 34 nM
28 | C=CC(=O)Nc1ccc(OC)c(Nc2cc(-c3c[nH]nc3-c3cccc(OCc4ccc5c(c4)CN(C)C5=O)c3)ccn2)c1 | > 300 | 3.9 |  | Papp at 10 µM [11]: 7.5 ×10⁻⁶ cm/s
29 | C=CS(=O)(=O)NCCn1cc(-c2ncnc3cc(OC)c(OC)cc23)c(-c2cccc(OC)c2)n1 | 192 | 2.2 |  | half-life at 1 µM [12]: 1.15 h
30 | C=CC(=O)N1C[C@@H](n2cc(-c3ccncc3)c(-c3cccc(OCc4ccc5c(c4)CN(C)C5=O)c3)n2)C[C@@H]1C | > 300 | 3 |  | 
31 | C=CC(=O)N1CC[C@H](n2cc(-c3ccncc3)c(-c3cccc(COc4ccc5c(c4)CN(C)C5=O)c3)n2)C1 | > 300 | 3 | 128 | 
32 | C=CC(=O)N1CC[C@@H](n2cc(-c3ncnc4cc(OC)c(OC)cc34)c(-c3cccc(OC)c3)n2)C1 | 135 | 2.4 |  | 
33 | CN1Cc2cc(COc3cccc(-c4n[nH]cc4-c4ccncc4)c3)ccc2C1=O | 77 | 3.1 |  | IC50 [14]: 150 nM; Ratio IC50 [23]: > 50; IC50 [20]: > 7400 nM
